Data taken from publication PMC3463238 (Toxicology letters, 2012).
Like-named read-outs stand apart in the source and are kept apart here. Marks after values point to notes of the source that are not given here.

Tests used:
[1] = Reactivity of styrene oxide and halogenated styrene oxides to cysteamine; format: physicochemical; conditions: oxide 1.0 μM, cysteamine 100 μM, phosphate buffer, 37 °C
[2] = Observed stability of the compound; format: physicochemical
[3] = system: CYP2E1 transgenic cells (h2E1); conditions: for Decrease in cell viability relative to vehicle group: 24 h, 100 μM
in vitro [4] = conditions: human
in vitro [5] = conditions: human; remark: listed apart in the source
recombinant human CYP2E1 = recombinant human CYP2E1 (Homo sapiens, UniProt P05181); conditions: pH 7.4
[6] = system: cellular proteins of CYP2E1 cells; conditions: human, 24 h, 100 μM
[7] = system: cellular proteins of wild-type cells; conditions: human, 24 h, 100 μM
[8] = Cytotoxicity in CYP2E1 transgenic cells; conditions: human
[9] = system: cellular proteins of CYP2E1 cells; assay: Cellular protein covalent binding of 14C-labeled styrenes in CYP2E1 cells; conditions: 14C-labeled compound 100 μM, 24 h
[10] = Cellular GSH contents in CYP2E1 cells; conditions: human

recombinant human CYP2E1, sequence (P05181 whole entry): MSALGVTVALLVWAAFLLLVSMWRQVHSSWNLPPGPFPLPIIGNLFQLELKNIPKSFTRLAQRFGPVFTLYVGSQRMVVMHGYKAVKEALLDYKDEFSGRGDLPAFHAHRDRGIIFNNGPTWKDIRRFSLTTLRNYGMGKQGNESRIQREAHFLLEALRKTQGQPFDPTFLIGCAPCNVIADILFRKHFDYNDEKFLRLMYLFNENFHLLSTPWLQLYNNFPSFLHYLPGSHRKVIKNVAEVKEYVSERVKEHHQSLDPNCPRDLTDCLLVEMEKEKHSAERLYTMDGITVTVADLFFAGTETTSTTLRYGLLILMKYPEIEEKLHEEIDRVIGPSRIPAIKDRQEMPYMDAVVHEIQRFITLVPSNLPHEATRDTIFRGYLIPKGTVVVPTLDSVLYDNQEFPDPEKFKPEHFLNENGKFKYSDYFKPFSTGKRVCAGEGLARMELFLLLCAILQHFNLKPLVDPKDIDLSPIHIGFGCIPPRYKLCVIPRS

Structure (SMILES)	Rate constant for production of the cysteamine adducts [1] [min⁻¹]	activity at 3 h, 100 µM (in vitro [4]) [%]	viability at 24 h, 100 µM (in vitro [5]) [%]	Bioactivation index (k × Vmax/Km) (recombinant human CYP2E1)	also measured
C=Cc1ccc(I)cc1 [4-iodostyrene]					Stability [2]: unstableness; Toxicity to CYP2E1 cells compared with another compound ([3]; human): more toxic than 4-bromostyrene
C=Cc1ccc(Br)cc1 [Br-ST, 4-bromostyrene]		61 ± 6.5	39.6 ± 4.1	31.9 ± 3.48 ^c	Binding load (radioactivity bound to cellular proteins) [6]: 6.17 nmol/mg protein; Fold lower radioactivity bound to proteins in wild-type cells than CYP2E1 cells [7]: 5 fold; Decrease in cell viability relative to vehicle group ([3]; human): 39.6%
C=Cc1ccc(Cl)cc1 [Cl-ST, 4-chlorostyrene]		71.2 ± 5.8	57.7 ± 9.9	15.8 ± 2.03 ^b	Decrease in cell viability relative to vehicle group ([3]; human): 57.7%
C=Cc1ccc(F)cc1 [F-ST, 4-fluorostyrene]		82.4 ± 2.2	78.8 ± 3.2	10.4 ± 0.64 ^a	Binding load (radioactivity bound to cellular proteins) [6]: 2.27 nmol/mg protein; Toxicity to CYP2E1 cells compared with another compound [3]: little difference in toxicity
C=Cc1ccccc1 [ST, Styrene]					viability at 24 h, 100 µM [8]: 80 ± 3%; Binding load (radioactivity bound to cellular proteins) [9]: 2.02 nmol/mg protein; activity at 3 h, 100 µM [10]: 83.7 ± 2.1%
c1ccc(C2CO2)cc1 (stereo not drawn) [styrene oxide]	13.4 ± 1.88				

The next lines start with results.

Rate constant for production of the cysteamine adducts [1] [min⁻¹]	Structure (SMILES)	activity at 3 h, 100 µM (in vitro [4]) [%]	viability at 24 h, 100 µM (in vitro [5]) [%]	Bioactivation index (k × Vmax/Km) (recombinant human CYP2E1)	also measured
29.3 ± 3.19	Brc1ccc(C2CO2)cc1 (stereo not drawn) [4-bromostyrene oxide]				
16.1 ± 2.08	Clc1ccc(C2CO2)cc1 (stereo not drawn) [4-chlorostyrene oxide]				
15.7 ± 1.57	Fc1ccc(C2CO2)cc1 (stereo not drawn) [4-fluorostyrene oxide]				
